Assay results from patent US8415342B2, “Besifloxacin ophthalmic composition for the treatment or control of infection” (Bausch & Lomb Incorporated, priority 2008, dated 2013).
In brackets after ≈: the same amount, converted by molar mass. Read-outs that look alike come from different tables or passages of the source.

Legend:
Assay type in all cases: cell-based
Legionella pneumophila = test: microbe, parasite or virus in culture
[1] = tested on: Lancefield group C, F, G streptococci; test: MIC, CLSI broth microdilution, clinical isolates; conditions: G streptococci (N = 50)
[2] = tested on: Staphylococcus saprophyticus; test: MIC, CLSI broth microdilution, clinical isolates; conditions: Staphylococcus saprophyticus (N = 101)
Citrobacter koseri = test: MIC, CLSI broth microdilution, clinical isolates; conditions: Citrobacter koseri (N = 100)
[3] = tested on: Staphylococcus lugdunensis; test: MIC, CLSI broth microdilution, clinical isolates; conditions: Staphylococcus lugdunensis (N = 15)
Moraxella catarrhalis = test: MIC, CLSI broth microdilution, clinical isolates; conditions: Moraxella catarrhalis (N = 101)
[4] = tested on: Staphylococcus haemolyticus; test: MIC, CLSI broth microdilution, clinical isolates; conditions: Staphylococcus haemolyticus (N = 101)
Streptococcus agalactiae = test: MIC, CLSI broth microdilution, clinical isolates; conditions: Streptococcus agalactiae (N = 100)
Haemophilus influenzae = test: MIC, CLSI broth microdilution, clinical isolates; conditions: for MIC50 / MIC90: Haemophilus influenzae
Staphylococcus aureus = test: MIC, CLSI broth microdilution, clinical isolates; conditions: for MIC50 / MIC90: Staphylococcus aureus
Staphylococcus warneri = test: MIC, CLSI broth microdilution, clinical isolates; conditions: Staphylococcus warneri (N = 50)
Streptococcus pyogenes = test: MIC, CLSI broth microdilution, clinical isolates; conditions: Streptococcus pyogenes (N = 101)
Viridans streptococci = test: MIC, CLSI broth microdilution, clinical isolates; conditions: Viridans streptococci (N = 156)
Klebsiella oxytoca = test: MIC, CLSI broth microdilution, clinical isolates; conditions: Klebsiella oxytoca (N = 50)
Streptococcus pneumoniae = test: MIC, CLSI broth microdilution, clinical isolates
[5] = tested on: Staphylococcus epidermidis; test: MIC, CLSI broth microdilution, clinical isolates; conditions: for MIC50: Staphylococcus epidermidis
Staphylococcus hominis = test: MIC, CLSI broth microdilution, clinical isolates; conditions: Staphylococcus hominis (N = 50)
Morganella morganii = test: MIC, CLSI broth microdilution, clinical isolates; conditions: Morganella morganii (N = 51)
[6] = Haemophilus influenzae (all phenotypes, N = 40)
[7] = Haemophilus influenzae (bla negative, N = 24)
[8] = Haemophilus influenzae (bla positive, N = 16)
[9] = Staphylococcus aureus (CNS, N = 16)
[10] = Staphylococcus aureus (CS, N = 14)
[11] = Staphylococcus aureus (all phenotypes, N = 30)
[12] = MRSA, Staphylococcus aureus (MRSA, N = 11)
[13] = MSSA, Staphylococcus aureus (MSSA, N = 19)
[14] = Streptococcus pneumoniae (PISP, N = 2)
[15] = Streptococcus pneumoniae (PRSP, N = 2)
[16] = Streptococcus pneumoniae (PSSP, N = 31)
[17] = Streptococcus pneumoniae (all phenotypes, N = 35)
[18] = Staphylococcus epidermidis (CNS, N = 6)
[19] = Staphylococcus epidermidis (CS, N = 9)
[20] = Staphylococcus epidermidis (MSSE, N = 6)
[21] = Staphylococcus epidermidis (all phenotypes, N = 15)

## C[C@H]1COc2c(N3CCN(C)CC3)c(F)cc3c(=O)c(C(=O)O)cn1c23 [Levofloxacin]
Legionella pneumophila; Legionella pneumophila
  MIC50: 0.03 µg/mL (≈ 0.083 µM)
  MIC90: 0.03 µg/mL (≈ 0.083 µM)
Legionella pneumophila; Legionella pneumophila (N = 50)
  MIC Range: 0.015 to 0.06 µg/mL
[1]
  % S: 98.0%
  MIC Range: 0.12 to 8 µg/mL
[1]; read-out: MIC50
  MIC50: 0.5 µg/mL (≈ 1.38 µM)
[1]; read-out: MIC90
  MIC90: 0.5 µg/mL (≈ 1.38 µM)
[2]
  % S: 100.0%
  MIC50: 0.5 µg/mL (≈ 1.38 µM)
  MIC90: 0.5 µg/mL (≈ 1.38 µM)
  MIC Range: 0.06 to 0.5 µg/mL
Citrobacter koseri
  % S: 99.0%
  MIC50: 0.03 µg/mL (≈ 0.083 µM)
  MIC90: 0.12 µg/mL (≈ 0.332 µM)
[3]
  % S: 66.7%
  MIC50: 0.25 µg/mL (≈ 0.692 µM)
  MIC90: > 8 µg/mL
Moraxella catarrhalis
  % S: 100.0%
  MIC50: 0.015 µg/mL (≈ 0.0415 µM)
  MIC90: 0.03 µg/mL (≈ 0.083 µM)
  MIC Range: 0.015 to 0.5 µg/mL
[4]
  % S: 39.6%
  MIC50: 4 µg/mL (≈ 11.1 µM)
  MIC90: > 8 µg/mL
Streptococcus agalactiae
  % S: 98.0%
  MIC Range: 0.25 to 4 µg/mL
Streptococcus agalactiae; read-out: MIC50
  MIC50: 0.5 µg/mL (≈ 1.38 µM)
Streptococcus agalactiae; read-out: MIC90
  MIC90: 1 µg/mL (≈ 2.77 µM)
Haemophilus influenzae; [6]
  % S: 100.0%
  MIC Range: 0.008 to 0.015 µg/mL
  MIC50: 0.015 µg/mL (≈ 0.0415 µM)
  MIC90: 0.015 µg/mL (≈ 0.0415 µM)
Haemophilus influenzae; [7]
  % S: 100.0%
  MIC Range: 0.008 to 0.015 µg/mL
  MIC50: 0.015 µg/mL (≈ 0.0415 µM)
  MIC90: 0.015 µg/mL (≈ 0.0415 µM)
Haemophilus influenzae; [8]
  % S: 100.0%
  MIC Range: 0.015-0.015 μg/mL
  MIC50: 0.015 µg/mL (≈ 0.0415 µM)
  MIC90: 0.015 µg/mL (≈ 0.0415 µM)
Staphylococcus aureus; [9]
  % S: 12.5%
  MIC50: 4 µg/mL (≈ 11.1 µM)
  MIC90: > 8 µg/mL
Staphylococcus aureus; [10]
  % S: 92.9%
  MIC Range: 0.06 to 2 µg/mL
  MIC50: 0.12 µg/mL (≈ 0.332 µM)
  MIC90: 0.25 µg/mL (≈ 0.692 µM)
Staphylococcus aureus; Staphylococcus aureus (MRSA, N = 11)
  % S: 18.2%
Staphylococcus aureus; Staphylococcus aureus (MSSA, N = 19)
  % S: 68.4%
Staphylococcus aureus; [11]
  % S: 50.0%
  MIC50: 1 µg/mL (≈ 2.77 µM)
  MIC90: > 8 µg/mL
Staphylococcus aureus; [12]
  MIC50: 4 µg/mL (≈ 11.1 µM)
  MIC90: > 8 µg/mL
Staphylococcus aureus; [13]
  MIC50: 0.25 µg/mL (≈ 0.692 µM)
  MIC90: 4 µg/mL (≈ 11.1 µM)
Staphylococcus warneri
  % S: 76.0%
  MIC50: 0.12 µg/mL (≈ 0.332 µM)
  MIC90: > 8 µg/mL
Streptococcus pyogenes
  % S: 100.0%
  MIC Range: 0.25 to 2 µg/mL
Streptococcus pyogenes; read-out: MIC50
  MIC50: 0.5 µg/mL (≈ 1.38 µM)
Streptococcus pyogenes; read-out: MIC90
  MIC90: 0.5 µg/mL (≈ 1.38 µM)
Viridans streptococci
  % S: 95.5%
Viridans streptococci; read-out: MIC50
  MIC50: 1 µg/mL (≈ 2.77 µM)
Viridans streptococci; read-out: MIC90
  MIC90: 1 µg/mL (≈ 2.77 µM)
Klebsiella oxytoca
  % S: 90.0%
  MIC50: 0.03 µg/mL (≈ 0.083 µM)
  MIC90: 0.5 µg/mL (≈ 1.38 µM)
  MIC Range: 0.015 to 8 µg/mL
Streptococcus pneumoniae; [14]
  % S: 100.0%
  MIC Range: 0.5 to 1 µg/mL
Streptococcus pneumoniae; [15]
  % S: 100.0%
  MIC Range: 0.5 to 1 µg/mL
Streptococcus pneumoniae; [16]
  % S: 96.8%
  MIC50: 0.5 µg/mL (≈ 1.38 µM)
  MIC90: 1 µg/mL (≈ 2.77 µM)
  MIC Range: 0.5 to 8 µg/mL
Streptococcus pneumoniae; [17]
  % S: 97.1%
  MIC Range: 0.5 to 8 µg/mL
Streptococcus pneumoniae; Streptococcus pneumoniae (all phenotypes, N = 35), read-out: MIC50
  MIC50: 0.5 µg/mL (≈ 1.38 µM)
Streptococcus pneumoniae; Streptococcus pneumoniae (all phenotypes, N = 35), read-out: MIC90
  MIC90: 1 µg/mL (≈ 2.77 µM)
[5]; [18]
  % S: 0.0%
  MIC50: 8 µg/mL (≈ 22.1 µM)
[5]; [19]
  % S: 100.0%
  MIC Range: 0.12-0.12 μg/mL
  MIC50: 0.12 µg/mL (≈ 0.332 µM)
[5]; Staphylococcus epidermidis (MRSE, N = 9)
  % S: 44.4%
[5]; [20]
  % S: 83.3%
  MIC Range: 0.12 to 8 µg/mL
  MIC50: 0.12 µg/mL (≈ 0.332 µM)
[5]; [21]
  % S: 60.0%
  MIC90: > 8 µg/mL
  MIC50: 0.12 µg/mL (≈ 0.332 µM)
[5]; MRSE, Staphylococcus epidermidis (MRSE, N = 9)
  MIC50: 2 µg/mL (≈ 5.53 µM)
Staphylococcus hominis
  % S: 30.0%
  MIC50: 8 µg/mL (≈ 22.1 µM)
  MIC90: > 8 µg/mL
Morganella morganii
  % S: 76.5%
  MIC50: 0.06 µg/mL (≈ 0.166 µM)
  MIC90: 8 µg/mL (≈ 22.1 µM)
